From article PMC12640667 (Chemmedchem, 2025)
Several values for one entry are separate records, joined by “and”; a condition that tells them apart may be missing. Equal values may be shown once. Read-outs that look alike come from different tables or passages of the source.

What was measured:
Hb [1] = biological target: T1, Hb (Homo sapiens, UniProt P69905); experiment: Oxygen equilibrium curve; assay type: biochemical; conditions: 2 mM; SS blood lysates; relative to untreated controls
Hb [2] = biological target: T1, Hb; experiment: Hb modification; assay type: binding; conditions: 2 mM; SS blood lysates; percentage fraction of total Hb area
Hb [3] = biological target: T1, Hb; experiment: Time-dependent Hb oxygen equilibrium; assay type: biochemical; conditions: at 3 h; 2 mM; normal whole blood, hematocrit 20%, 37 °C
[4] = tested on: human cytochrome P450 (CYP) enzymes; experiment: CYP inhibition panel of seven CYP enzymes, pooled human liver microsomes; assay type: in vitro ADME; conditions: CYP1A2, CYP2C8, CYP2C9, CYP2C19, CYP2D6, CYP3A4, CYP2B6; 0.1–100 µM
[5] = cited from earlier work
[6] = cited from earlier work; remark: listed apart in the source

SMILES	% P50 shift (Hb [1])	% Hb modification (Hb [2]) [%]	P50 shift (Hb [3]) [%]	inhibition of liver CYP isozymes [4]	half‐life [5] [h]	aq. solubility ([6]; at 25 °C, ref PubChem CID 237,332)	aq. solubility ([6]; in water at 25 °C) [µg/mL]
O=Cc1ccc(CO)o1 [5‐HMF, 5‐hydroxymethylfurfural]	27% and 27.2 ± 4.9%	33.8 ± 11.7	35	no inhibition	< 2.2	≈ 400 mg mL^−1	–
CC(C)n1nccc1-c1ncccc1COc1cccc(O)c1C=O [Voxelotor]	–	–	–	–	> 50	–	< 100
